In ChEMBL document CHEMBL4422667, “Synthetic derivatives of the natural product 13-amino 2-desoxy-4-epi-pulchellin inhibit STAT3 signaling and induce G2/M arrest and death of colon cancer cells” (Bioorg Med Chem Lett, 2019):
Values after ≈ are worked out from the molar mass of the structure shown.

How the values were obtained:
[1] = tested on: HCT-116; assay: cells; settings: Homo sapiens, HCT-116, 72 h
Description: Cytotoxicity against human HCT116 cells assessed as reduction in cell viability after 72 hrs by MTT assay

[2] = tested on: HT-29; assay: cells; settings: Homo sapiens, HT-29, 72 h
Description: Cytotoxicity against human HT-29 cells assessed as reduction in cell viability after 72 hrs by MTT assay

[3] = Aqueous solubility of compound at 25 degC; assay type: physicochemical; settings: water

Structure (SMILES) | IC50 [1] [µM] | IC50 [2] [µM] | solubility [3] [µg/mL]
C[C@@H]1C[C@@H]2OC(=O)[C@@H](CN3CCOCC3)[C@H]2C[C@]2(C)[C@@H](O)CC[C@@H]12 (relative stereo) | 18.7 |  | 
C[C@@H]1C[C@@H]2OC(=O)[C@@H](CNCCCO)[C@H]2C[C@]2(C)[C@@H](O)CC[C@@H]12 (relative stereo) | > 30 |  | 
CNC[C@@H]1C(=O)O[C@H]2C[C@@H](C)[C@@H]3CC[C@H](O)[C@@]3(C)C[C@@H]21 (relative stereo) | > 30 |  | 
C[C@@H]1C[C@@H]2OC(=O)[C@@H](CNCCN3CCCC3)[C@H]2C[C@]2(C)[C@@H](O)CC[C@@H]12 (relative stereo) | 22.8 |  | 
C[C@@H]1C[C@@H]2OC(=O)[C@@H](CNCCCN(C)C)[C@H]2C[C@]2(C)[C@@H](O)CC[C@@H]12 (relative stereo) | > 30 |  | 
CCCNC[C@@H]1C(=O)O[C@H]2C[C@@H](C)[C@@H]3CC[C@H](O)[C@@]3(C)C[C@@H]21 (relative stereo) | > 30 |  | 
CCCCCCNC[C@@H]1C(=O)O[C@H]2C[C@@H](C)[C@@H]3CC[C@H](O)[C@@]3(C)C[C@@H]21 (relative stereo) | > 30 |  | 
CCCCNC[C@@H]1C(=O)O[C@H]2C[C@@H](C)[C@@H]3CC[C@H](O)[C@@]3(C)C[C@@H]21 (relative stereo) | > 30 |  | 
CC(O)CNC[C@@H]1C(=O)O[C@H]2C[C@@H](C)[C@@H]3CC[C@H](O)[C@@]3(C)C[C@@H]21 (mixture of isomers) | > 30 |  | 
C[C@@H]1C[C@@H]2OC(=O)[C@@H](CN3CCN(C)CC3)[C@H]2C[C@]2(C)[C@@H](O)CC[C@@H]12 (relative stereo) | > 30 |  | 
CC(C)NC[C@@H]1C(=O)O[C@H]2C[C@@H](C)[C@@H]3CC[C@H](O)[C@@]3(C)C[C@@H]21 (relative stereo) | 17.8 |  | 
COC(CNC[C@@H]1C(=O)O[C@H]2C[C@@H](C)[C@@H]3CC[C@H](O)[C@@]3(C)C[C@@H]21)OC (relative stereo) | 27.5 |  | 
C[C@@H]1C[C@@H]2OC(=O)[C@@H](CNCCN(C)C)[C@H]2C[C@]2(C)[C@@H](O)CC[C@@H]12 (mixture of isomers) | > 30 |  | 

Molecules with a lower IC50 [1], results first:

IC50 [1] [µM] | IC50 [2] [µM] | solubility [3] [µg/mL] | Structure (SMILES)
12.2 |  |  | C[C@@H]1C[C@@H]2OC(=O)[C@@H](CN3CCC(N(C)C)CC3)[C@H]2C[C@]2(C)[C@@H](O)CC[C@@H]12 (relative stereo)
5.18 | 3.31 |  | C[C@@H]1C[C@@H]2OC(=O)[C@@H](CN(C)C)[C@H]2C[C@]2(C)[C@@H](O)CC[C@@H]12 (relative stereo)
8.39 | 3.86 |  | C[C@@H]1C[C@@H]2OC(=O)[C@@H](CN3CCCCC3)[C@H]2C[C@]2(C)[C@@H](O)CC[C@@H]12 (relative stereo)
4.43 | 3.37 | 200 (≈ 799 µM) | C=C1C(=O)O[C@H]2C[C@@H](C)[C@@H]3CC[C@H](O)[C@@]3(C)C[C@H]12 [PSEUDOGUAIANOLIDE]
4.94 | 3.38 |  | C=C1C(=O)O[C@@H]2C3O[C@]3(C)CC/C=C(\C)CC[C@@H]12 (stereo not given in full)
15.5 |  |  | C[C@@H]1C[C@@H]2OC(=O)[C@@H](CN3CCNCC3)[C@H]2C[C@]2(C)[C@@H](O)CC[C@@H]12 (relative stereo)
5.36 | 3.19 |  | C[C@@H]1C[C@@H]2OC(=O)[C@@H](CN3CCC(O)CC3)[C@H]2C[C@]2(C)[C@@H](O)CC[C@@H]12 (relative stereo)
2.4 | 1.62 |  | CCN(C)C[C@@H]1C(=O)O[C@H]2C[C@@H](C)[C@@H]3CC[C@H](O)[C@@]3(C)C[C@@H]21 (relative stereo)
5.46 | 3.45 |  | CCN(CC)C[C@@H]1C(=O)O[C@H]2C[C@@H](C)[C@@H]3CC[C@H](O)[C@@]3(C)C[C@@H]21 (relative stereo)
